6 compounds from ChEMBL document CHEMBL1134832, “Conformational analysis of tandospirone in aqueous solution: lead evolution of potent dopamine D4 receptor ligands” (Bioorg Med Chem Lett, 2001) can be followed below.

As a reminder, the Ki is the equilibrium dissociation constant of an inhibitor or competing ligand from its target.

For one experiment, the target named is T1, D(4) dopamine receptor (Homo sapiens, UniProt P21917).
T1 sequence (P21917 whole entry): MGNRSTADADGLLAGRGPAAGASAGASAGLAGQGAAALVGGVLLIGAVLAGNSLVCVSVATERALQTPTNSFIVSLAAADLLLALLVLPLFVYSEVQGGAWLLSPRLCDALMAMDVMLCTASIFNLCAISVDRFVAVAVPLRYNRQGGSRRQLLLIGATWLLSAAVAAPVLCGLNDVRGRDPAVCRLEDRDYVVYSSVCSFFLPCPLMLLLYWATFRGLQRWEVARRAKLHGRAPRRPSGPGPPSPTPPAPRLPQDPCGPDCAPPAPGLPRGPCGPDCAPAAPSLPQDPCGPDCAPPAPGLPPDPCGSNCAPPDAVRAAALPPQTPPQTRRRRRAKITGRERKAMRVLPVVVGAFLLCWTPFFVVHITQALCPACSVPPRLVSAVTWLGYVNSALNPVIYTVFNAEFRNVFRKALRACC
Briefly: Binding affinity to Dopamine receptor D4 was determined.

Experiment [1] deals with T2, 5-hydroxytryptamine receptor 1A (Homo sapiens, UniProt P08908).
T2 sequence (P08908 whole entry): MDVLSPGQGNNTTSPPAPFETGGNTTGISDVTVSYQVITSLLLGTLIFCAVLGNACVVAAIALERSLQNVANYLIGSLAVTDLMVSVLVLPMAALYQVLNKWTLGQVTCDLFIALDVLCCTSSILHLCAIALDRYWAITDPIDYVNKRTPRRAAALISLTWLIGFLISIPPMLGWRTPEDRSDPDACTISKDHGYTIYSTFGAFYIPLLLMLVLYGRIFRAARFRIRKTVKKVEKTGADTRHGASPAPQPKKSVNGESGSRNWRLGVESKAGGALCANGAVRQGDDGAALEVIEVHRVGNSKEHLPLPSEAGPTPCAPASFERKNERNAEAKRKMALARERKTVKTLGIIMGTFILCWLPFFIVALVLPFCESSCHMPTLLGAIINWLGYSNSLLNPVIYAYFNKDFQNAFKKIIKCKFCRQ
Briefly: Binding affinity to 5-hydroxytryptamine 1A receptor was determined.

A further experiment concerns the target D(2) dopamine receptor (Homo sapiens, UniProt P14416). The experiment is described as follows: Binding affinity to Dopamine receptor D2 was determined.

Sequence of D(2) dopamine receptor (P14416 whole entry): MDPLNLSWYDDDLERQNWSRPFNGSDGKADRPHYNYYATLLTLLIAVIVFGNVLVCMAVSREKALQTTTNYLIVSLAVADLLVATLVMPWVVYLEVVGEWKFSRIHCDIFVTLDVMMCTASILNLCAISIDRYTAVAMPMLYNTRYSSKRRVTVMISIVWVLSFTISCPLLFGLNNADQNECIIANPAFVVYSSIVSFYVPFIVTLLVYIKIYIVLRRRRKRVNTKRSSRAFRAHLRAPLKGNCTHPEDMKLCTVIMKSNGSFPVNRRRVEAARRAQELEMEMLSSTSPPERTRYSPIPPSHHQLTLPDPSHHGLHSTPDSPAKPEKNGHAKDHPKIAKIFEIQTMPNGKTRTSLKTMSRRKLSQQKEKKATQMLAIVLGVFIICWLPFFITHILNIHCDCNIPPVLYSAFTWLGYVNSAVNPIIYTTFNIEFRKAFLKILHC

Regarding `CNc1nc(Cl)c(Sc2ccccc2)c(N2CCN(C)CC2)n1`, the Ki on D(4) dopamine receptor was 250 nM; in experiment [1] it was 460 nM; at D(2) dopamine receptor, 188 nM.

As for `Cc1nc(Cl)c(Sc2ccc(Cl)cc2)c(N2CCN(C)CC2)n1`, the inhibition constant Ki at D(4) dopamine receptor came out at 260 nM; in experiment [1], 1500 nM; at D(2) dopamine receptor, 62 nM.

Regarding `CN1CCN(c2nc3ccccc3c(Cl)c2Sc2ccccc2)CC1`, the Ki on D(4) dopamine receptor turned out to be 92 nM; in experiment [1] it was 2000 nM; at D(2) dopamine receptor it was 31 nM.

Regarding `Cc1nc(Cl)c(Sc2ccc(Cl)cc2)c(NC2CCN(Cc3ccccc3)CC2)n1`, the inhibition constant Ki at D(4) dopamine receptor came out at 2.3 nM; in experiment [1], 160 nM; at D(2) dopamine receptor, 62 nM.

As for `CNc1nc(Cl)c(SC)c(N2CCN(C)CC2)n1` [MEZILAMINE], the Ki at D(4) dopamine receptor was > 10000 nM; in experiment [1] it was 430 nM; at D(2) dopamine receptor, 5.4 nM.

In the case of `O=C1[C@@H]2[C@H]3CC[C@H](C3)[C@@H]2C(=O)N1CCCCN1CCN(c2ncccn2)CC1` [TANDOSPIRONE], the Ki came out at 7.2 nM at D(4) dopamine receptor, 32 nM in experiment [1] and 460 nM on D(2) dopamine receptor.
